Reference: US12600732B2, “Bifunctional compounds for degrading BTK via ubiquitin proteosome pathway” (NURIX THERAPEUTICS, INC., priority 2019, dated 2026)
Where two headings read alike, the source gives them in different places.

What was measured:
[1] = target: T1, Ikaros (Homo sapiens, UniProt Q13422+Q96SW2); test: Ikaros degradation in Mantle Cell Lymphoma lines (flow cytometry); assay type: cell-based; conditions: treatment time 24 h
T1 construct: endogenous in cells; host or cells: Mino, Rec-1
T1 sequence (Q13422 whole entry): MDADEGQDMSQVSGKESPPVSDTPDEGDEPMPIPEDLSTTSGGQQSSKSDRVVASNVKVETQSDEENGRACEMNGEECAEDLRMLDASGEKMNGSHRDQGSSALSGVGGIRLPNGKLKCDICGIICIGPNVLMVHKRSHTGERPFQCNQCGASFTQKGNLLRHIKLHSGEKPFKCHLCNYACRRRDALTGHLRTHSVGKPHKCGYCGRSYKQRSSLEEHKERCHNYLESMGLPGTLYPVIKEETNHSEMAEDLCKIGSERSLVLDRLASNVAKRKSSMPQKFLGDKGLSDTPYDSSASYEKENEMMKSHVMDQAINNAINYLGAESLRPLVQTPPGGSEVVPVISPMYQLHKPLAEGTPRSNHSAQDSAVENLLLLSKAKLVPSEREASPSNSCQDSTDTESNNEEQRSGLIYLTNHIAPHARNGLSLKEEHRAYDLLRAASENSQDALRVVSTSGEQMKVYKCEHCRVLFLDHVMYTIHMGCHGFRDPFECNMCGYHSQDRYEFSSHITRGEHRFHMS
T1 sequence (Q96SW2 whole entry): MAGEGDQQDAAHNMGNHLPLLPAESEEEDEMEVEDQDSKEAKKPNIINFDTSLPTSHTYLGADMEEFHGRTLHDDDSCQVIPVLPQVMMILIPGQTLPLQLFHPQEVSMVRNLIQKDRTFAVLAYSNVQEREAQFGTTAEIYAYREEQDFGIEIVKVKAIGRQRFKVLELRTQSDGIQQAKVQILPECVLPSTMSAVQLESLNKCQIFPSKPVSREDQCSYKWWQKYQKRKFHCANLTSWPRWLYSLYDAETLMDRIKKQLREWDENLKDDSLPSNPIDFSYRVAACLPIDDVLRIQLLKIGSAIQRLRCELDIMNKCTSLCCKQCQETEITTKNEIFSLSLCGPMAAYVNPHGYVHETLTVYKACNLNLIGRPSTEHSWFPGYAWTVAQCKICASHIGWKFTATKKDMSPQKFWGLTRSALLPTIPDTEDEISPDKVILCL
T1 sequence (Q16531 whole entry partner): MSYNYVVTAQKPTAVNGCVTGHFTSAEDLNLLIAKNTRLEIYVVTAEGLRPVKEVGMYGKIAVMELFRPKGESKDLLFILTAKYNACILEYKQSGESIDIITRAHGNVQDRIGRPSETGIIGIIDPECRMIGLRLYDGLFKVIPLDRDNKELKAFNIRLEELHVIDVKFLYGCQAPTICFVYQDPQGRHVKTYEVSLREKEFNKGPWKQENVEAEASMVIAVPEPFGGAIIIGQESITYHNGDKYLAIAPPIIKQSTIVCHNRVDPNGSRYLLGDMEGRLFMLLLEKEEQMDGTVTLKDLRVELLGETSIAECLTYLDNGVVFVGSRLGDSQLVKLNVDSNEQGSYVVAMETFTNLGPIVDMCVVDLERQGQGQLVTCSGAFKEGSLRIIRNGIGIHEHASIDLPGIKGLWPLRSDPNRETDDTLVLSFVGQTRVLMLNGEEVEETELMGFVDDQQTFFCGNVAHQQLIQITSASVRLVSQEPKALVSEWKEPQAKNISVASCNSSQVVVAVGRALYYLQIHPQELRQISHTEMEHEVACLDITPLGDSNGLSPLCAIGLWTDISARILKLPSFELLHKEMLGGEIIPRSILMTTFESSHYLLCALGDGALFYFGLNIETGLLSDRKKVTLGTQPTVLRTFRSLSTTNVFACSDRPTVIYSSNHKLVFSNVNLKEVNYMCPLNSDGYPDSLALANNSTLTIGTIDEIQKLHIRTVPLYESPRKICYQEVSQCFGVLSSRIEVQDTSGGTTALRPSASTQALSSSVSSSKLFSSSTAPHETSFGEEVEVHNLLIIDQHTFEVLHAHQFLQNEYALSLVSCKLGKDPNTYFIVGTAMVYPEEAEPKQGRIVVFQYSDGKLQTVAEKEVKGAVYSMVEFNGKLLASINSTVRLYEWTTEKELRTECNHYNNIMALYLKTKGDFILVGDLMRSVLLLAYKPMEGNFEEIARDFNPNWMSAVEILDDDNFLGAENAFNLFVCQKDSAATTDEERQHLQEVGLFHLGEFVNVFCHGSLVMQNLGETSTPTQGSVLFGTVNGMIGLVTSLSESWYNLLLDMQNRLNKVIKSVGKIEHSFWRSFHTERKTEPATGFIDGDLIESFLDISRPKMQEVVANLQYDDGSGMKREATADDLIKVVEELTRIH
Source text: Ikaros and Aiolos Degradation in Mantle Cell Lymphoma Lines (Ikaros and Aiolos Flow Cytometry)
This example evaluates the IMiD activity of CTMs in cellular models of Mantle Cell Lymphoma (MCL). […] These assays are to determine potency of CTMs for degrading IMiD neo-substrates in cellular models of MCL and to generate data to inform efficacy studies in MCL xenografts.

[2] = tested on: B cell receptor (BCR) signaling; test: B cell activation assay (flow cytometry), mouse B cells; assay type: cell-based; conditions: treatment 4 h, IgM stimulation 18 h
How it was run: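 Compound was present throughout BCR stimulation. Live single lymphocytes were gated into CD20+CD3− B cells and CD3+CD20− T cells by flow cytometry. Geometric MFI of CD86 and CD69 was measured per population, with unstimulated samples defining baseline activation.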

[3] = tested on: primary human T cells; test: T cell activation assay, IL-2 secretion (ELISA); assay type: cell-based
How it was run: (§1)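 Primary human T cells stimulated via TCR with anti-CD3/anti-CD28 in the presence of test compound. IL-2 secretion measured by ELISA; surface CD25 and CD69 by flow cytometry. Values are fold-change versus anti-CD3/anti-CD28 stimulation without compound.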

[4] = tested on: primary human T cells; test: T cell activation assay, CD25 and CD69 staining (flow cytometry); assay type: cell-based; conditions: for CD25 Staining Anti-CD3/Anti-CD28 Stimulation / CD69 Staining Anti-CD3/Anti-CD28 Stimulation: fold-change of response relative to baseline
How it was run: as §1

[5] = tested on: Mino cells; test: Cell viability assay (CellTiter-Glo), Mino cells; assay type: cell-based
Source text: (§2) This example evaluates effects of CTM-mediated degradation on cell viability. […] Mino and Rec-1 are models of Mantle Cell Lymphoma, which is sensitive to IMiDs.

[6] = tested on: Rec-1 cells; test: Cell viability assay (CellTiter-Glo), Rec-1 cells; assay type: cell-based
Source text: as §2

[7] = target: T2, TEC kinase (Homo sapiens, UniProt P42680); test: TEC kinase degradation in K562 cells (western blot); assay type: cell-based; conditions: FIGS. 13A-13D
T2 construct: endogenous in cells; host or cells: K562
T2 sequence (P42680 1-631): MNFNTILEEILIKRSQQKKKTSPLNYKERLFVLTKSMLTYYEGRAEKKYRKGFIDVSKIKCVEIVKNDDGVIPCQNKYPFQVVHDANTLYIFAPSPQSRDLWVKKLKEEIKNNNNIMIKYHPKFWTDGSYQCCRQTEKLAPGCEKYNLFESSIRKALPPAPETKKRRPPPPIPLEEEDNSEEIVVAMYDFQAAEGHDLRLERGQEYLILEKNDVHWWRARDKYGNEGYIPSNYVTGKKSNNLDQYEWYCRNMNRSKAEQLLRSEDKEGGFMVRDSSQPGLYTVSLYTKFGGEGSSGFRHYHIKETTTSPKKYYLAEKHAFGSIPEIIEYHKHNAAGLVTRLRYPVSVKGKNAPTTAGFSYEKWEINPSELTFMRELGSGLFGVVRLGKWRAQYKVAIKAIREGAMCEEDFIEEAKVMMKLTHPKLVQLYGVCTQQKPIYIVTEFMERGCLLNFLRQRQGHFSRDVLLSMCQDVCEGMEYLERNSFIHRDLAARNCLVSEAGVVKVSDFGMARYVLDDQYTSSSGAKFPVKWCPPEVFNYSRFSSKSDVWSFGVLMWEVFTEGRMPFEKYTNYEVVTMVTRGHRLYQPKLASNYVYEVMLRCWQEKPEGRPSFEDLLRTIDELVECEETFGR
Procedure: To determine effects of BTK CTMs on TEC levels in cells, K562 cells were treated for four hours with CTMs at concentrations between 0.026-2000 nM. TEC levels in cell lysate was assessed by western blot.

[8] = Compound plasma exposure in mouse (CD-1), daily oral dosing, same table as the cyno DRF study; assay type: in vivo; conditions: CD-1, mouse
[9] = Compound plasma exposure in cyno DRF study; assay type: in vivo; conditions: cynomolgus monkey, po
[10] = tested on: TMD8 cells; test: Cell viability assay (CellTiter-Glo), TMD8 cells
[11] = 30 mg/kg, 30 mg/kg PO, 1 day of dosing
[12] = 30 mg/kg, 30 mg/kg PO, 14 days of dosing
[13] = 100 mg/kg, 100 mg/kg PO, 1 day of dosing
[14] = 100 mg/kg, 100 mg/kg PO, 14 days of dosing
[15] = 300 mg/kg, 300 mg/kg PO, 1 day of dosing
[16] = 300 mg/kg, 300 mg/kg PO, 14 days of dosing

For `CN1CCN([C@@H]2CCCN(c3cnc(C(N)=O)c(Nc4ccc(C5CCN(C[C@H]6CCN(c7ccc8c(c7)C(=O)N(C7CCC(=O)NC7=O)C8=O)C6)CC5)cc4)n3)C2)C1=O` (stereo partly shown) [Compound 44], the DC50 ([1]; Mino cells) was 1400 nM, the DC50 ([1]; Rec-1 cells) was 72 nM and the EC50 ([2]; read-out: CD69 EC50) was 0.2 nM. For the same compound, the EC50 ([2]; read-out: CD86 EC50) was 0.4 nM, the “IL-2 Secretion Anti-CD3/Anti-CD28 Stimulation” value ([3]; 1.4 nM, fold-change of response relative to baseline) was 1.43 and the “IL-2 Secretion Anti-CD3/Anti-CD28 Stimulation” value ([3]; 37 nM, fold-change of response relative to baseline) was 3.49. The “IL-2 Secretion Anti-CD3/Anti-CD28 Stimulation” value ([3]; 333 nM, fold-change of response relative to baseline (stimulation without compound)) was 3.75, the “IL-2 secretion compared to baseline (anti-CD3/anti-CD28 stimulation alone)” value ([3]; primary human T cells) was “increased IL-2 secretion but not to the level observed with IMiDs” and the “CD25 Staining Anti-CD3/Anti-CD28 Stimulation” value ([4]; 1.4 nM) was 1.25. The “CD69 Staining Anti-CD3/Anti-CD28 Stimulation” value ([4]; 1.4 nM) was 1.21, the “CD25 Staining Anti-CD3/Anti-CD28 Stimulation” value ([4]; 37 nM) was 0.86 and the “CD69 Staining Anti-CD3/Anti-CD28 Stimulation” value ([4]; 37 nM) was 0.85. For the same compound, the “CD25 Staining Anti-CD3/Anti-CD28 Stimulation” value ([4]; 333 nM) was 0.52, the “CD69 Staining Anti-CD3/Anti-CD28 Stimulation” value ([4]; 333 nM) was 0.60 and the “expression of CD25 and CD69 compared to baseline (anti-CD3/anti-CD28 stimulation alone)” value ([4]; primary human T cells) was “unchanged or decreased levels”. For the same compound, the EC50 ([5]; Homo sapiens, Mino cells, treatment time 72 h) was 11.7 nM, the “potency on cell viability compared with compound 130” value ([5]; MCL cell lines (Mino and Rec-1)) was “more potent” and the “EMAX (% viable cells)” value ([5]; Mino cells, treatment time 72 h) was 61%. For the same compound, the EC50 ([6]; Homo sapiens, Rec1, treatment time 72 h) was 0.82 nM, the “EMAX (% viable cells)” value ([6]; treatment time 72 h) was 37% and the “degradation of BTK compared with TEC” value [7] was “more potent degradation of BTK than TEC”. The “effects on TEC kinase levels” value ([7]; four hours, 0.026-2000 nM, western blot) was “mild to moderate effects”, the AUC [8, 11] was 2.32 µM·h and the Cmax [8, 11] was 230 nM. The AUC [8, 12] was 2.22 µM·h, the Cmax [8, 12] was 250 nM and the AUC [8, 13] was 4.15 µM·h. It also gave a Cmax [8, 13] of 400 nM, an AUC [8, 14] of 8.07 µM·h and a Cmax [8, 14] of 590 nM. For the same compound, the AUC [8, 15] was 9.53 µM·h, the Cmax [8, 15] was 740 nM and the AUC [8, 16] was 12.8 µM·h. For the same compound, the Cmax [8, 16] was 940 nM, the AUC ([9]; 10 mg/kg, 10 mg/kg PO, 1 day of dosing) was 0.148 µM·h and the AUC [9, 11] was 0.268 µM·h. It also gave a Cmax [9, 13] of 22.6 nM, an AUC [9, 14] of 1.52 µM·h and an EC50 ([10]; Homo sapiens, TMD8, 72 h) of 3.73 nM. For the same compound, the “EMAX (% viable cells)” value ([10]; TMD8 cells, treatment time 72 h) was 15%.
